From patent US4885284A, “Dihydropyridine-5-phosphonic acid cyclic propylene ester” (Nissan Chemical Industries Ltd., priority 1986, dated 1989)
Structures can show the parent of a compound that is named as a salt.

Key:
[1] = Acute toxicity test (oral LD50); conditions: mouse, in vivo; oral (5% solution), male ddY mice, seven days, Litchfield-Wilcoxon
Description: ddY mice (.male., 4 weeks old) were divided into groups of five mice and the test compound dissolved in purified water was administered orally (5% solution) (p.o) to the male ddY mice.
After seven days, LD50 values were calculated from the dead […] recorded in the individual dosage groups by the method of Litchfield-Wilcoxon.

[2] = tested on: male spontaneously hypertensive rat (SHR); test: Antihypertensive effect (systolic blood pressure, tail cuff method, oral, SHR); format: in vivo; conditions: systolic blood pressure at 2, 4, 6 and 8 hours
Description: After oral administration of the test compound dissolved in a H2 O-PEG 400 solvent mixture (H2 O:PEG 400 (w/w)=1:3) to the male spontaneously hypertensive rat (SHR), the systolic blood pressure was measured at 2, 4, 6 and 8 hours after the administration of the test compounds by a tail cuff method. Prior to the measurement, rats were warmed at 50° C. for five minutes. The effectively antihypertensive activities were observed also at 8 hours after the administraton of the test compounds. Test 2: Acute toxicity test

[3] = tested on: taenia caecum of guinea pig; test: Calcium antagonistic effect (relaxation of CaCl2-induced contraction in K+-depolarized taenia caecum); format: cell-based; conditions: Cavia porcellus; -log ID50 (M); 50% relaxation relative to maximum relaxation by 10^-4 M papaverine; 37° C, 10 mM CaCl2; read-out: pID50 (calcium antagonistic effect) (converted)
Description: 10 mm in situ length of taenia caecum of guinea pig was suspended at a tension of 1 g in a 20 ml organ bath filled with a physiological salt solution (NaCl: 135 mM, KCl: 5 mM etc.).
This solution was bubbled with a gas mixture of 95% O2 -5% CO2 and kept at 37° C. Then, the preparation was depolarized by a K^+ rich solution (NaCl: 40 mM, KCl: 100 mM). After 10-20 minutes equilibration period, 10 mM of CaCl2 was added to the bathing solution. The contraction was produced, and then the test compound applied cumulatively. The relaxation produced was expressed as percentage of the maximum relaxation produced by 10^-4 M papaverine, and the concentration of the compound producing 50% relaxation, i.e. ID50 (M), was calculated.

Structure (SMILES)	LD50 at 168 h [1] [mg/kg]	Antihypertensive effect, maximum decrease ([2]; dose 10 mg/kg) [%]	IC50 [3] [M]	Antihypertensive effect, maximum decrease ([2]; dose 15 mg/kg) [%]	Antihypertensive effect, maximum decrease ([2]; dose 20 mg/kg) [%]
CC1=C(C(=O)OCCN2CCN(C(c3ccccc3)c3ccccc3)CC2)C(c2cccc(Cl)c2Cl)C(P2(=O)OCC(C)(C)CO2)=C(C)N1 (centres unmarked) [Dihydrochloride of Example 2]	> 400	37	9.77e-08		
CC1=C(C(=O)OCCCN2CCN(C(c3ccc(F)cc3)c3ccc(F)cc3)CC2)C(c2cccc(Cl)c2Cl)C(P2(=O)OCC(C)(C)CO2)=C(C)N1 (centres unmarked) [Dihydrochloride of Example 3]	> 400		1.74e-07	36	
CC1=C(C(=O)OCCN(Cc2ccccc2)c2ccccc2)C(c2cccc([N+](=O)[O-])c2)C(P2(=O)OCC(C)(C)CO2)=C(C)N1 (centres unmarked) [Hydrochloride of Example 1]	> 600		6.76e-09	36	
CC1=C(C(=O)OC(C)CN(Cc2ccccc2)c2ccccc2)C(c2cccc([N+](=O)[O-])c2)C(P2(=O)OC(C)(C)CC(C)(C)O2)=C(C)N1 (centres unmarked) [Hydrochloride of Example 4]	> 300		1.26e-07		38
CC1=C(C(=O)OCCN(Cc2ccccc2)c2ccccc2)C(c2cccc([N+](=O)[O-])c2)C(P2(=O)OC(C)(C)CC(C)(C)O2)=C(C)N1 (centres unmarked) [Hydrochloride of Example 5]	> 300	40			
CC1=C(C(=O)OC(C)CN(Cc2ccccc2)c2ccccc2)C(c2cccc(Cl)c2Cl)C(P2(=O)O[C@H](C)C[C@@H](C)O2)=C(C)N1 (some centres unmarked) [Hydrochloride of Example 6]	> 300	28	1.05e-07		
CC1=C(C(=O)OCCN(Cc2ccccc2)c2ccccc2)C(c2cccc([N+](=O)[O-])c2)C(P2(=O)O[C@H](C)C[C@@H](C)O2)=C(C)N1 (some centres unmarked) [Hydrochloride of Example 7]	> 600		6.76e-09	34	
